pIC50: −log10 of the molar value.
Biological target: T1, human mGlu5 (Homo sapiens, UniProt P41594)
T1 construct: expressed in transfected cells; host or cells: HEK 293A
Assay: mGlu5 negative allosteric modulator Ca2+ flux assay in HEK 293A cells (Table 1)
Format: cell-based
Conditions: HEK 293A cells stably expressing mGlu5; Ca2+ flux (Fluo-4); decrease of glutamate EC80 response; read-out: hmGlu5 NAM IC50

T1 sequence (P41594 21-1212): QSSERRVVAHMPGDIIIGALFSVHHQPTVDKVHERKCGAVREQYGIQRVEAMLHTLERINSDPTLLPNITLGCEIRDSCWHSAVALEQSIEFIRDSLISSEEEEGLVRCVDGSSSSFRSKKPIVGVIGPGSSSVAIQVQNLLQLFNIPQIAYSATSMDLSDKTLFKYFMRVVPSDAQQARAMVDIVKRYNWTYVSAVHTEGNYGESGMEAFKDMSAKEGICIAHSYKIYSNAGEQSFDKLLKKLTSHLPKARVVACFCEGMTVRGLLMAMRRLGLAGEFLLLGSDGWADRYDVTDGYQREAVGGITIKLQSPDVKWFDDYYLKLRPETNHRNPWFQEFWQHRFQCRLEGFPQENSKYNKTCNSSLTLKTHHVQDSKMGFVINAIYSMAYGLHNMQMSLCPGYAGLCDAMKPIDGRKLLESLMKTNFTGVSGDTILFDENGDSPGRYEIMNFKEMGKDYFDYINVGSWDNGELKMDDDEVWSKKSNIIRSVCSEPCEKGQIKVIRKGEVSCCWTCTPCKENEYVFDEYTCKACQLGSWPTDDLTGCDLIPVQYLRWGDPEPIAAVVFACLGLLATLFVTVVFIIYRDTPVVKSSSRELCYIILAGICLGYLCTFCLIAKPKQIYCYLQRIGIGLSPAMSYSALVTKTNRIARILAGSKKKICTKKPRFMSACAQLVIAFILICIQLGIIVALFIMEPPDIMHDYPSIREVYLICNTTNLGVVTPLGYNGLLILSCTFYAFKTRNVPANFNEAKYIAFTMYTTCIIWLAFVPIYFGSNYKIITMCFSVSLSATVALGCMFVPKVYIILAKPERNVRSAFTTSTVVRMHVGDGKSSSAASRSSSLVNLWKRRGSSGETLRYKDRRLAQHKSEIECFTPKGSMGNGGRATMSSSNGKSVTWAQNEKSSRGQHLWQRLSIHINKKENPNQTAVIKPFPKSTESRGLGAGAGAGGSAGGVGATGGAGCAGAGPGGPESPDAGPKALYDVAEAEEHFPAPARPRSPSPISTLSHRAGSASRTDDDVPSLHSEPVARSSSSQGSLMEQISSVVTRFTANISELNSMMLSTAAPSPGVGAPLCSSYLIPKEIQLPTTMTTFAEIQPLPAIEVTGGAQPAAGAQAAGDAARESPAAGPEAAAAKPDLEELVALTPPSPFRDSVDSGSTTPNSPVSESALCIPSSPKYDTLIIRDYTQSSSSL

SMILES | pIC50
Cc1csc(NC(=O)c2cc(-c3cnccc3C)ccc2F)n1 [Compound 1, 2-fluoro-5-(4-methylpyridin-3-yl)-N-(4-methylthiazol-2-yl)benzamide] | 6.13
Cc1csc(NC(=O)c2cc(-c3cnccc3C)cc(F)c2F)n1 [Compound 2, 2,3-difluoro-5-(4-methylpyridin-3-yl)-N-(4-methylthiazol-2-yl)benzamide] | 6.87
Cc1csc(NC(=O)c2cc(F)cc(-c3cnccc3C)c2)n1 [Compound 3, 3-fluoro-5-(4-methylpyridin-3-yl)-N-(4-methylthiazol-2-yl)benzamide] | 6.27
Cc1cc(C(=O)Nc2cccc(C)n2)cc(-c2cnccc2C)c1 [Compound 4, 3-methyl-N-(6-methylpyridin-2-yl)-5-(4-methylpyridin-3-yl)benzamide] | 7.37
Cc1cc(C(=O)Nc2ccccn2)cc(-c2cnccc2C)c1 [Compound 5, 3-Methyl-5-(4-methylpyridin-3-yl)-N-(pyridin-2-yl)benzamide] | 7.02
Cc1cc(C(=O)Nc2ccc(F)cn2)cc(-c2cnccc2C)c1 [Compound 6, N-(5-fluoropyridin-2-yl)-3-methyl-5-(4-methylpyridin-3-yl)benzamide] | 6.43
Cc1cc(C(=O)Nc2nc(C)cs2)cc(-c2cnccc2C)c1 [Compound 7, 3-Methyl-5-(4-methylpyridin-3-yl)-N-(4-methylthiazol-2-yl)benzamidecarboxamide] | 6.90
Cc1ccncc1-c1cc(F)c(F)c(C(=O)Nc2ccccn2)c1 [Compound 8, 2,3-difluoro-5-(4-methylpyridin-3-yl)-N-(pyridin-2-yl)benzamide] | < 5.00
Cc1ccncc1-c1cc(F)c(F)c(C(=O)Nc2ccc(F)cn2)c1 [Compound 9, 2,3-difluoro-N-(5-fluoropyridin-2-yl)-5-(4-methylpyridin-3-yl)benzamide] | 5.99
Cc1cccc(NC(=O)c2cc(-c3cnccc3C)cc(F)c2F)n1 [Compound 10, 2,3-difluoro-N-(6-methylpyridin-2-yl)-5-(4-methylpyridin-3-yl)benzamide] | 6.49
Cc1ccncc1-c1ccc(F)c(C(=O)Nc2ccccn2)c1 [Compound 11, 2-fluoro-5-(4-methylpyridin-3-yl)-N-(pyridin-2-yl)benzamide] | 5.72
Cc1ccncc1-c1ccc(F)c(C(=O)Nc2ccc(F)cn2)c1 [Compound 12, 2-fluoro-N-(5-fluoropyridin-2-yl)-5-(4-methylpyridin-3-yl)benzamide] | 5.97
Cc1cccc(NC(=O)c2cc(-c3cnccc3C)ccc2F)n1 [Compound 13, 2-fluoro-N-(6-methylpyridin-2-yl)-5-(4-methylpyridin-3-yl)benzamide] | 6.44
Cc1csc(NC(=O)c2cc(Cl)cc(-c3cnccc3C)c2)n1 [Compound 14, 3-chloro-5-(4-methylpyridin-3-yl)-N-(4-methylthiazol-2-yl)benzamide] | 6.20
Cc1ccncc1-c1cc(Cl)cc(C(=O)Nc2ccccn2)c1 [Compound 15, 3-chloro-5-(4-methylpyridin-3-yl)-N-(pyridin-2-yl)benzamide] | 6.48
Cc1cccc(NC(=O)c2cc(Cl)cc(-c3cnccc3C)c2)n1 [Compound 16, 3-chloro-N-(6-methylpyridin-2-yl)-5-(4-methylpyridin-3-yl)benzamide] | 6.98
Cc1ccncc1-c1cc(Cl)cc(C(=O)Nc2ccc(F)cn2)c1 [Compound 17, 3-chloro-N-(5-fluoropyridin-2-yl)-5-(4-methylpyridin-3-yl)benzamide] | 5.73
Cc1csc(NC(=O)c2cc(-c3cnccc3C)cc(C(F)(F)F)c2)n1 [Compound 18, 3-(4-methylpyridin-3-yl)-N-(4-methylthiazol-2-yl)-5-(trifluoromethyl)benzamide] | < 5.00
Cc1ccncc1-c1cc(C(=O)Nc2ccccn2)cc(C(F)(F)F)c1 [Compound 19, 3-(4-methylpyridin-3-yl)-N-(pyridin-2-yl)-5-(trifluoromethyl)benzamide] | 5.59
Cc1cccc(NC(=O)c2cc(-c3cnccc3C)cc(C(F)(F)F)c2)n1 [Compound 20, N-(6-methylpyridin-2-yl)-3-(4-methylpyridin-3-yl)-5-(trifluoromethyl)benzamide] | 5.94
Cc1ccncc1-c1cc(C(=O)Nc2ccc(F)cn2)cc(C(F)(F)F)c1 [Compound 21, N-(5-fluoropyridin-2-yl)-3-(4-methylpyridin-3-yl)-5-(trifluoromethyl)benzamide] | 5.47
Cc1csc(NC(=O)c2cc(C#N)cc(-c3cnccc3C)c2)n1 [Compound 22, 3-cyano-5-(4-methylpyridin-3-yl)-N-(4-methylthiazol-2-yl)benzamide] | 6.70
Cc1ccncc1-c1cc(C#N)cc(C(=O)Nc2ccccn2)c1 [Compound 23, 3-cyano-5-(4-methylpyridin-3-yl)-N-(pyridin-2-yl)benzamide] | 5.92

SMILES | pIC50
Cc1cccc(NC(=O)c2cc(C#N)cc(-c3cnccc3C)c2)n1 [Compound 24, 3-cyano-N-(6-methylpyridin-2-yl)-5-(4-methylpyridin-3-yl)benzamide] | 6.56
Cc1ccncc1-c1cc(C#N)cc(C(=O)Nc2ccc(F)cn2)c1 [Compound 25, 3-cyano-N-(5-fluoropyridin-2-yl)-5-(4-methylpyridin-3-yl)benzamide] | 6.00
Cc1nn(C)cc1-c1ccc(F)c(C(=O)Nc2ccc(F)cn2)c1 [Compound 26, 5-(1,3-dimethyl-1H-pyrazol-4-yl)-2-fluoro-N-(5-fluoropyridin-2-yl)benzamide] | < 5.00
Cn1cncc1-c1cc(F)cc(C(=O)Nc2ccc(F)cn2)c1 [Compound 27, 3-fluoro-N-(5-fluoropyridin-2-yl)-5-(1-methyl-1H-imidazol-5-yl)benzamide] | < 5.00
Cc1nn(C)c(C)c1-c1cc(F)cc(C(=O)Nc2ccc(F)cn2)c1 [Compound 28, 3-fluoro-N-(5-fluoropyridin-2-yl)-5-(1,3,5-trimethyl-1H-pyrazol-4-yl)benzamide] | < 5.00
Cc1ccncc1-c1cc(C(=O)Nc2ccc(F)cn2)cc(F)c1F [Compound 29, 3,4-difluoro-N-(5-fluoropyridin-2-yl)-5-(4-methylpyridin-3-yl)benzamide] | 5.65
Cc1cccc(NC(=O)c2cc(F)c(F)c(-c3cnccc3C)c2)n1 [Compound 30, 3,4-difluoro-N-(6-methylpyridin-2-yl)-5-(4-methylpyridin-3-yl)benzamide] | 7.00
Cc1ccncc1-c1cc(C(=O)Nc2ccc(Cl)cn2)cc(F)c1F [Compound 31, N-(5-chloropyridin-2-yl)-3,4-difluoro-5-(4-methylpyridin-3-yl)benzamide] | 6.17
Cn1nccc1-c1cc(F)c(F)c(C(=O)Nc2ccc(F)cn2)c1 [Compound 32, 2,3-difluoro-N-(5-fluoropyridin-2-yl)-5-(1-methyl-1H-pyrazol-5-yl)benzamide] | 5.31
Cc1nn(C)cc1-c1cc(F)c(F)c(C(=O)Nc2ccc(F)cn2)c1 [Compound 33, 5-(1,3-dimethyl-1H-pyrazol-4-yl)-2,3-difluoro-N-(5-fluoropyridin-2-yl)benzamide] | 5.46
O=C(Nc1ccc(F)cn1)c1cc(-c2cncc(F)c2)cc(F)c1F [Compound 34, 2,3-difluoro-N-(5-fluoropyridin-2-yl)-5-(5-fluoropyridin-3-yl)benzamide] | 6.79
Cc1ncc(-c2cc(F)c(F)c(C(=O)Nc3ccc(F)cn3)c2)s1 [Compound 35, 2,3-difluoro-N-(5-fluoropyridin-2-yl)-5-(2-methylthiazol-5-yl)benzamide] | 5.38
Cn1nc(C(F)(F)F)cc1-c1cc(F)c(F)c(C(=O)Nc2ccc(F)cn2)c1 [Compound 36, 2,3-difluoro-N-(5-fluoropyridin-2-yl)-5-(1-methyl-3-(trifluoromethyl)-1H-pyrazol-5-yl)benzamide] | < 5.00
Cc1csc(NC(=O)c2cc(-c3cnccc3C)c(F)cc2F)n1 [Compound 37, 2,4-difluoro-5-(4-methylpyridin-3-yl)-N-(4-methylthiazol-2-yl)benzamide] | 6.36
Cc1ccncc1-c1cc(C(=O)Nc2ccc(F)cn2)c(F)cc1F [Compound 38, 2,4-difluoro-N-(5-fluoropyridin-2-yl)-5-(4-methylpyridin-3-yl)benzamide] | 5.19
Cc1ccncc1-c1cc(C(=O)Nc2ccc(Cl)cn2)c(F)cc1F [Compound 39, N-(5-chloropyridin-2-yl)-2,4-difluoro-5-(4-methylpyridin-3-yl)benzamide] | 6.01
Cc1csc(NC(=O)c2cc(-c3cncc(F)c3)cc(F)c2F)n1 [Compound 40, 2,3-difluoro-5-(5-fluoropyridin-3-yl)-N-(4-methylthiazol-2-yl)benzamide] | 7.03
O=C(Nc1cccc(Cl)n1)c1cc(-c2cncc(F)c2)cc(F)c1F [Compound 42, N-(6-chloropyridin-2-yl)-2,3-difluoro-5-(5-fluoropyridin-3-yl)benzamide] | 6.71
Cc1cccc(NC(=O)c2cc(F)c(F)c(-c3ccnn3C)c2)n1 [Compound 43, 3,4-difluoro-5-(1-methyl-1H-pyrazol-5-yl)-N-(6-methylpyridin-2-yl)benzamide] | 5.35
Cc1cccc(NC(=O)c2cc(F)c(F)c(-c3cc(C(F)(F)F)nn3C)c2)n1 [Compound 44, 3,4-difluoro-5-(1-methyl-3-(trifluoromethyl)-1H-pyrazol-5-yl)-N-(6-methylpyridin-2-yl)benzamide] | 5.45
Cc1cccc(NC(=O)c2cc(F)c(F)c(-c3cnc(C)s3)c2)n1 [Compound 45, 3,4-difluoro-N-(6-methylpyridin-2-yl)-5-(2-methylthiazol-5-yl)benzamide] | 5.91
Cc1cccc(NC(=O)c2cc(F)c(F)c(-c3cncc(F)c3)c2)n1 [Compound 46, 3,4-difluoro-5-(5-fluoropyridin-3-yl)-N-(6-methylpyridin-2-yl)benzamide] | 7.03
Cc1cccc(NC(=O)c2cc(-c3cnccc3C)c(F)cc2F)n1 [Compound 47, 2,4-difluoro-N-(6-methylpyridin-2-yl)-5-(4-methylpyridin-3-yl)benzamide] | 6.98

From US20240390350A1, “PHENYL CORE COMPOUNDS AS MGLU5 NEGATIVE ALLOSTERIC MODULATORS AND METHODS OF MAKING AND USING THE SAME” (Vanderbilt University, priority 2021, published 2024)
